Entries after “also recorded” stand apart in the source; their conditions may differ.
Tests used:
Type in all cases: cell-based
[1] = system: IGF-1; experiment: IGF-1 production by ELISA, human cartilage explants; settings: for IGF-1 production compared to IL-1 alone: human cartilage explants, 5 or 50 ug/mL (FIGS. 7, 8)
Description: Full thickness cartilage slices (20-25 mg) were dissected from the cartilage using a sterile scalpel blade. Four to five cartilage pieces that were approximately equal in size and weight were transferred to each well of a 24-well, flat bottom plate (Nuns, Denmark) containing DMEM:F12 (1:1) supplemented with antibiotics and 10% FCS and cultured for 24 hours. Subsequently the cartilage explants were cultured overnight in serum free media. The cartilage explants were treated with IL-β alone or with IL-β positive test agents for 72 hours in serum free media. Explants cultured in the absence of IL-β or test agents were used as controls. Additionally, the actions of kuromanin or cyanidin chloride were examined independently of IL-β exposure (5 ng/mL). Where appropriate, explants were exposed to test agents 15 minutes prior to the treatment with IL-β. Total glycosaminoglycan present in the culture supernatant was estimated as described below.
Human IGF-1 label in chondrocytes culture or cartilage explant media was quantified using a commercially available Human IGF-1 ELISA kit (R& D Systems) per manufacturer's directions.

[2] = system: IGF-1; experiment: IGF-1 gene expression in human synovial explants; settings: for IGF-1 gene expression and production: synovial explants, together with glucose, overall conclusion
Description: Synovial explants (N=6) were harvested from human donors undergoing either uni-compartmental or total knee replacement. In all but the first experiment, the specimens were trimmed of extraneous adipose tissue and washed in low glucose DMEM (1 g/l). The specimens in the first experiment were not trimmed of excess adipose tissue and were washed in high-glucose DMEM (4.5 g/L).
In the first experiment (n=2), the specimens were cultured for 48 hours in 0.1% calf serum and either high- or low-glucose DMEM. In the second tow experiments (n=4), the specimens were cultured for 48 hours in serum-free ITS (Insulin, Transferrin, Selenium) media diluted with either high- or low-glucose DMEM. IGF-1 gene expression. Briefly, total RNA was extracted from synovial tissue using RNeasy Total RNA Kit (Qiagen, Inc., Santa Clarita, Calif.). Real-time quantitative RT-PCR was done using Taqman RT-PCR reagents (Applied Biosystems, Foster City, Calif.).
(§1) Expression of IGF-1 was normalized to that of the housekeeping gene GAPDH. IGF-1 ELISA. Human IGF-1 protein secretion into the culture media was measured by ELISA (RD Systems, Minneapolis, Minn.). Synovial culture media was centrifuged to remove any particulates. Controls and samples were added to ELISA wells which were pre-coated with a monoclonal antibody specific for IGF-1. Any IGF-1 present would be expected to be bound by the immobilized antibody. After washing away any unbound substances, an enzyme-linked polyclonal antibody specific for IGF-1 was added to the wells. Following a wash to remove any unbound antibody-enzyme reagent. a substrate solution was added to the wells. The medial developed a color intensity in proportion to the amount of IGF-1 bound in the initial step. Optical density of each well was determined by using a microplate reader set to 450 nm. IGF-1 activity obtained by serial dilution of known protein concentrations.
(§2) Synovial explants (n=6) were harvested from human donors undergoing total knee replacement. The specimens were trimmed of extraneous adipose tissue. In the two experiments, the synovial specimens were washed in low-glucose DMEM (1 g/L) for a few hours and then placed in the assigned treatment groups. In subsequent experiments the synovial specimens were washed in low-glucoses DMEM for 24 hours before treatment.
(§3) In all experiments (n=4), the specimens were cultured for 48 hours in serum-free ITS (Insulin, Transferrin, Selenium) media diluted with either high- or low-glucose DMEM. In addition, various anthocyanins were added to both the high- and low-glucose groups. Low-glucose alone acted as a control group. After the two experiments, the level of media was adjusted relative to the weight of the tissue.
Briefly, total RNA was extracted from synovial tissue using RNeasy Total RNA Kit (Qiagen Inc., Santa Clarita, Calif.). Real-time quantitative RT-PCR was done using ‘ragman RT-PCR. reagents (Applied Biosystems, Foster City, Calif.). Expression of IGF-1 was normalized to that of the housekeeping gene GAPDH. The results of IGF-1 gene expression are only presented if detectable levels of low glucose alone were present and able to serve as a control group for relative-fold change in expression.

[3] = system: IGF-1; experiment: IGF-1 ELISA of culture media of human synovial explants; settings: for IGF-1 protein release in media: high vs low glucose
Description: as §2, §3
as §1, with “Human IGF-1” for “Expression of IGF-1 was normalized to that of the housekeeping gene GAPDH. IGF-1 ELISA. Human IGF-1”, “by ELISA (R & D Systems, Minneapolis,” for “by ELISA (RD Systems, Minneapolis,”, “unbound antibody-enzyme reagent, a substrate” for “unbound antibody-enzyme reagent. a substrate”, “wells. The media developed a” for “wells. The medial developed a”, “nm. IGF-1 concentration in the sample was calculated by a standardized curve of IGF-I activity obtained” for “nm. IGF-1 activity obtained”

[4] = FIG. 22, volume titrated to tissue weight, in high glucose
[5] = increasing glucose concentration, synovial tissue

Oc1cc(O)c2cc(O)c(-c3ccc(O)c(O)c3)[o+]c2c1 [Cyanidin chloride]
IGF-1 production ([1]; explants, IL-1 with high dose 50 ug/mL): no benefit was observed
IGF-1 production ([1]; explants, IL-1 with low dose 5 ug/mL): restoration of control IGF-1 production
basal IGF-1 production ([1]; explants, high dose alone): did not express basal IGF-1 production
IGF-1 production compared to IL-1 alone [1]: increased; also recorded: greater than IL-1 alone when treated with cyanidin alone or in combination with IL-1
IGF-1 gene expression relative to low glucose alone ([2]; FIG. 27, in the presence of high glucose): highest expression levels
IGF-1 gene expression and production [2]: elevate IGF-1 gene expression and production
IGF-1 protein levels in media ([3]; FIG. 21, 7 ml of media regardless of sample weight, with High Glucose, listed as Cyanidin): highest IGF-1 protein levels
IGF-1 protein levels in media ([3]; FIG. 21, 7 ml of media regardless of sample weight, with High Glucose, listed as cyanidin): highest levels of IGF-1 in media
IGF-1 protein levels in media ([3]; FIG. 22, volume titrated to tissue weight, combined with low glucose, listed as Cyanidin): greatest effect
IGF-1 protein levels in media ([3]; FIG. 22, volume titrated to tissue weight, combined with low glucose, listed as cyanidin): greatest production of IGF-1 protein levels
IGF-1 protein levels in media [3, 4]: inhibitory
level of IGF-1 protein in media ([3]; FIG. 26, lower anthocyanin concentration (5 mM), in the presence of low glucose): highest level of IGF-1 protein

OC[C@H]1O[C@@H](Oc2cc3c(O)cc(O)cc3[o+]c2-c2ccc(O)c(O)c2)[C@H](O)[C@@H](O)[C@@H]1O.[Cl-] [Kuromanin chloride]
IGF-1 production compared to IL-1 alone [1]: increased; also recorded: greater than IL-1 alone when treated with kuromanin alone or in combination with IL-1
IGF-1 gene expression ([2]; FIG. 24, in the presence of high glucose): inhibitory
IGF-1 gene expression relative to low glucose alone ([2]; FIG. 24, in the presence of low glucose): 3 fold
IGF-1 gene expression and production [2]: elevate IGF-1 gene expression and production
IGF-1 protein levels in media ([3]; FIG. 22, volume titrated to tissue weight, combined with low glucose, listed as Kuromanin): greatest effect
IGF-1 protein levels in media ([3]; FIG. 22, volume titrated to tissue weight, combined with low glucose, listed as kuromanin): greatest production of IGF-1 protein levels
IGF-1 protein levels in media [3, 4]: inhibitory

O=C[C@H](O)[C@@H](O)[C@H](O)[C@H](O)CO [glucose]
IGF-1 gene expression relative to low glucose alone ([2]; FIG. 24, High glucose alone): over 4 fold
IGF-1 gene expression relative to low glucose alone ([2]; FIG. 27, High Glucose alone, grossly inflamed sample (RH)): highest expression levels
increase in IGF-1 gene expression compared to low glucose alone ([2]; FIG. 28, High Glucose alone): 12 fold
increase of IGF-1 gene expression ([2]; high (4.5 g/L) vs low (1 g/L) glucose, 48 hours, three donors): up to 5 fold
IGF-1 gene expression [2, 5]: increase both IGF-1 gene expression and IGF-1 release; also recorded: significantly increase; also recorded: consistently increased IGF-1 gene expression
level of IGF-1 protein in media ([3]; FIG. 23, volume titrated to tissue weight, High Glucose alone (highest level)): above 2.00 ng/ml
level of IGF-1 protein in media ([3]; FIG. 25, volume titrated to tissue weight, High Glucose alone): highest level of IGF-1 protein
level of IGF-1 protein in media ([3]; FIG. 26, High Glucose alone): highest level of IGF-1 protein
IGF-I protein expression ([3]; High Glucose alone, across the experiments of Example 7): most consistent increase in IGF-I protein expression
IGF-1 levels in media, on average ([3]; high (4.5 g/L) vs low (1 g/L) glucose, 48 hours, 6 donors): more than doubled
increase of IGF-1 in media, tissue that responded the most ([3]; high glucose, donor undergoing unicompartmental arthroplasty): 5 ×
IGF-1 protein release in media ([3]; four donors): significant response
IGF-1 protein release in media ([3]; two donors): no effect on IGF-1 protein release in media
IGF-1 secretion [3, 5]: increase both IGF-1 gene expression and IGF-1 release; also recorded: increased IGF-1 secretion in synovial tissue, but in a donor dependent fashion
